Results reported in patent US7652037B2, “Methods of lowering lipid levels in a mammal” (City Of Hope, priority 2003, dated 2010).
Marks after values point to notes of the source that are not given here.

Legend:
STZ-Diabetic Rats [1] = assay: Body weight and glycemia in STZ-diabetic and control rats (Example 1); assay type: in vivo, rat; conditions: for Body Weight / HbA1c / Plasma Glucose: mean ± SD; for effect on plasma glucose and glycated hemoglobin / weight compared to the diabetic control rats: diabetic rats; for weight compared to the diabetic control rats: only LR-90 statistically significant
Method: (§1) Male Sprague-Dawley rats (about 175 to 200 g) were adapted for one week prior to treatment, then rendered diabetic by intra-peritoneal injection of STZ (65 mg/kg in citrate buffer, pH 4.5) after an overnight fast. Control (non-diabetic) animals were injected with the buffer only. Diabetes was confirmed by measuring the plasma glucose concentrations 7 days after Streptozotocin (STZ)-injection. Only animals with a plasma glucose concentration greater than 20 mmol were classified as diabetic and used in the study. These diabetic rats were divided randomly into an untreated diabetic control group and a diabetic treatment group. The treatment group received an LR compound at 50 mg/l in their drinking water throughout the duration of the study (32 weeks for LR-90; 30 weeks for LR-9 and LR-74). All animals were housed individually and were given free access to food and water.
(§2) Blood (from the tail vein) and urine samples were collected from rats for glycemic control analysis and albuminuria measurements. Glycemia was monitored every 8 weeks by measuring plasma glucose and glycated hemoglobin. Plasma or serum also was tested for total cholesterol and total triglycerides. Progression of renal dysfunction was assessed by measuring urinary albumin to creatinine ratio (UA/Cr) and serum or plasma creatinine. For measurement of urinary albumin and creatinine concentrations, rats were housed in metabolic cages for 24 hours and urine was collected in a collection beaker with several drops of toluene to inhibit microbial growth.
At the end of study, the rats were weighed and anaesthetized with isoflourane and blood was drawn by heart puncture and transferred into heparinized and non-heparinized vacutainer tubes on ice. These blood samples were later centifuged for plasma and serum collection respectively, and stored at −70° C. until the time of analysis. Rats were killed by over-anesthetization and cardiac puncture and the kidneys were removed immediately, weighed, decapsulated and rinsed in PBS buffer. Sections of the kidneys were stored in 10% NBF for subsequent microscopic examinations and immunohistochemistry. The tail of each individual rat was cut, removed and stored in 50 mL conical tubes at −70° C.
Statistical analyses of data presented in this example and the following examples were first analyzed by ANOVA and post-hoc comparisons between group means were analyzed using unpaired Student's t test. A p value of less than 0.05 was considered statistically significant. Data are presented as means±SD.

STZ-Diabetic Rats [2] = assay: Renal function parameters in STZ-diabetic rats (Example 3); assay type: in vivo, rat; conditions: for Plasma Creatine / Urinary Albumin / Urinary Albumin/Creatine Ratio: mean ± SD; for decrease of elevated plasma creatinine concentrations: diabetic rats
Method: as §1, §2
Urinary albumin, plasma creatinine concentration, and urinary albumin/creatine ratio (UA/Cr) were used as indicators of renal function.

STZ-Diabetic Rats [3] = assay: Tail tendon collagen crosslinking, fluorescence (pepsin digestion) and acid solubility; assay type: in vivo, rat; conditions: diabetic rats compared with untreated diabetic animals
Method: Isolation and preparation of tail tendon collagen was performed according to Kochakian et al., Diabetes 45:1694-1700, 1996. The relative degree of crosslinking and AGE formation in collagen was assessed by pepsin digestion and acid solubility. Pepsin digestion was performed as described previously by Stefek et al., Biochim. Biophys. Acta 1502:398-404, 2000. Briefly, collagen samples of 10 mg from individual rats were digested with pepsin (50 μg/mL in 0.5 mol/l acetic acid) for 24 hours at 37° C. After digestion, the samples were centrifuged at 3000 rpm for 30 minutes at 4° C. and the clear supernatant containing the digested collagen was collected. One hundred microliter aliquots of the supernatant were mixed with 900 μL PBS buffer for measurement of the fluorescence of the sample at 365 nm excitation and 418 nm emission. The hydroxyproline content of the supernatant was calculated following acid hydrolysis using a microassay method according to known methods (Creemers et al., Biotechniques 22:656-658, 1997).
The acid solubility of tail tendon collagen was measured by a modification of the method outlined in Yang et al., Arch. Biochem. Biophys. 412:42-46, 2003. Briefly, samples of about 2 mg collagen were weighed and solubilized in 0.05 M acetic acid overnight at 4° C. The suspensions were centrifuged at 20,000 g 60 minutes at 4° C. and the supernatants and pellets were separated for analysis of hydroxyproline content following acid hydrolysis. Acid solubility was calculated as the percentage of hydroxyproline in the supernatant divided by the total hydroxyproline content in the pellet and the supernatant.

Human LDL = assay: Cu++-mediated LDL oxidation, TBARS (Example 16); conditions: 250 μM compound, followed for 5 hours; control lag phase about 2 hours
Method: Human LDL was isolated from plasma of healthy donors by single vertical spin centrifugation (see Chung et al., Methods Enzymol. 128:181-209, 1986) and used within 24-48 hours of preparation. LDL (50 μg/mL) was incubated at 37° C. in 50 mM chelex-treated phosphate buffer, pH 7.4, alone or in the presence of 5 μM CuCl2 or 5 μM CuCl2 plus various concentrations of the LR compounds. After 5 hours of incubation, aliquots from each reaction mixture were removed for measurement of thiobarbituric acid-reacting substances (TBARS) as described in Satoh, Clin. Chim. Acta 90:37-43, 1978. Briefly, 250 μL of 20% trichloroacetic acid was added to 500 μL of sample aliquot, followed by 750 μL of 1% […]. The samples then were vortexed and incubated in a boiling water bath for 10 minutes. Upon cooling, the samples were centrifuged for 5 minutes at 5000 rpm. Absorbance of the supernatant was taken at 532 nm, and expressed as MDA equivalents using 1,1,3,3-tetramethoxypropane as standards. For fatty acid oxidation studies, linoleic acid (5#mM) was incubated alone or in the presence of 1 mM LR compound in […] phosphate buffer, pH 7.4, for 7 days at 37° C. Aliquots from each reaction mixture were withdrawn periodically for measurement of TBARS as described above.
Results are shown in FIG. 23A, where values are provided as means±SD of two independent experiments (n=4 for each treatment). In separate experiments, the time course for the oxidative modification fo LDL by Cu^++ in the presence of 250 μM compound was followed for 5 hours and aliquots for each time interval were assayed for TBARS. Values in FIG. 23B are means±SD of two independent experiments (n=4 per treatment).

[4] = STZ-diabetic (D) rats, 50 mg/l in drinking water, 30 weeks
[5] = non-diabetic (ND) rats, 50 mg/l in drinking water, 30 weeks
[6] = STZ-diabetic (D) rats, 30 weeks
[7] = non-diabetic (ND) rats, 30 weeks
[8] = STZ-diabetic (D) rats, LR-90 50 mg/l in drinking water, 32 weeks
[9] = non-diabetic (ND) rats, LR-90 50 mg/l in drinking water, 32 weeks
[10] = STZ-diabetic (D) rats, LR-90, 32 weeks
[11] = non-diabetic (ND) rats, LR-90, 32 weeks

Compound | Body Weight (STZ-Diabetic Rats [1]; [4]) [g] | HbA1c (STZ-Diabetic Rats [1]; [4]) | Plasma Glucose (STZ-Diabetic Rats [1]; [4]) [mmol/L] | effect on plasma glucose and glycated hemoglobin (STZ-Diabetic Rats [1]; 50 mg/l in drinking water) | weight compared to the diabetic control rats (STZ-Diabetic Rats [1]; 50 mg/l in drinking water) | Body Weight (STZ-Diabetic Rats [1]; [5]) [g] | HbA1c (STZ-Diabetic Rats [1]; [5]) [%] | Plasma Glucose (STZ-Diabetic Rats [1]; [5]) [mmol/L] | Plasma Creatine (STZ-Diabetic Rats [2]; [6]) | Urinary Albumin (STZ-Diabetic Rats [2]; [6]) | Urinary Albumin/Creatine Ratio (STZ-Diabetic Rats [2]; [6]) | decrease of elevated plasma creatinine concentrations (STZ-Diabetic Rats [2]) [%] | Plasma Creatine (STZ-Diabetic Rats [2]; [7]) [mg/dL] | Urinary Albumin (STZ-Diabetic Rats [2]; [7]) [mg/24 hr] | Urinary Albumin/Creatine Ratio (STZ-Diabetic Rats [2]; [7]) | fluorescence and crosslinking of tail tendon collagen (pepsin digestion) (STZ-Diabetic Rats [3]) | time course of Cu++-mediated oxidation of LDL (Human LDL) | further results
CC(C)(Oc1ccc(NC(=O)c2ccc3ccccc3c2)cc1)C(=O)O [LR-9, 4-(2-napthylcarboxamido) phenoxyisobutyric acid] | 288.0 ± 71.8 | 1.95 ± 0.22^b % | 27.1 ± 1.3 | did not affect | moderate increase in weight | 681.0 ± 9.3 | 0.90 ± 0.08 | 8.2 ± 0.9 | 1.79 ± 0.95^c mg/dl | 18.0 ± 9.1^c mg/24 hr | 1.36 ± 0.93^c | ~50 | 0.42 ± 0.02 | 4.8 ± 2.3 | 0.33 ± 0.13 | significant reduction | significantly inhibited the rate of oxidation after 2 hours | 
CC(Oc1cccc2cccnc12)C(=O)O (stereo not drawn) [LR-74, 2-(8-quinolinoxy) propionic acid] | 314.7 ± 53.0 | 2.10 ± 0.30% | 26.9 ± 1.5 | did not affect | moderate increase in weight | 744.0 ± 51.8 | 0.87 ± 0.12 | 6.8 ± 0.8 | 1.64 ± 1.07^c mg/dl | 14.3 ± 9.07^c mg/24 hr | 1.23 ± 0.60^c | ~50 | 0.42 ± 0.05 | 4.6 ± 2.4 | 0.30 ± 0.16 | significant reduction | no observable propagation phase | 
methylene bis(4,4′-(2-chlorophenylureidophenoxyisobutyric acid) [LR-90] |  |  |  | did not affect | moderate increase in weight |  |  |  |  |  |  | ~50 |  |  |  | significant reduction | no observable propagation phase | Body Weight (STZ-Diabetic Rats [1]; [8]): 337.6 ± 26.6^c g; HbA1c (STZ-Diabetic Rats [1]; [8]): 3.3 ± 0.4%; Plasma Glucose (STZ-Diabetic Rats [1]; [8]): 28.9 ± 3.4 mmol/L; Body Weight (STZ-Diabetic Rats [1]; [9]): 723.0 ± 21.9 g; HbA1c (STZ-Diabetic Rats [1]; [9]): 1.5 ± 0.1%; Plasma Glucose (STZ-Diabetic Rats [1]; [9]): 6.8 ± 0.7 mmol/L; Plasma Creatine (STZ-Diabetic Rats [2]; [10]): 1.50 ± 0.53^c mg/dl; Urinary Albumin (STZ-Diabetic Rats [2]; [10]): 23.6 ± 4.5^c mg/24 hr; Urinary Albumin/Creatine Ratio (STZ-Diabetic Rats [2]; [10]): 1.57 ± 0.49^c; Plasma Creatine (STZ-Diabetic Rats [2]; [11]): 0.58 ± 0.07 mg/dL; Urinary Albumin (STZ-Diabetic Rats [2]; [11]): 8.9 ± 1.5 mg/24 hr; Urinary Albumin/Creatine Ratio (STZ-Diabetic Rats [2]; [11]): 0.57 ± 0.16
